{"source": "patent US20080220416A1", "about": "“Compositions for Inhibiting Cell Growth and Inducing Apoptosis in Cancer Cells and Methods of Use Thereof” (THE BOARD OF TRUSTEES OF THE UNIVERSITY OF ILLINOI, priority 2004, published 2008)", "key": {"NOXA [1]": {"system": "NOXA", "experiment": "Bortezomib on NOXA in SAOS2 osteogenic sarcoma cells (Western blot)", "format": "cell-based", "conditions": "SAOS2, p53-null; 1 μM; 24 hr exposure", "protocol": "To test whether the NOXA inducing effect of bortezomib is limited to melanomas, SAOS2 cells (ATTC, Rockville, Md.), an osteogenic sarcoma cell line (p53-null) was exposed to 1 μM bortezomib. SAOS2 cells were tested for p53 expression and induction of NOXA expression before and during a 24 hr exposure to bortezomib (1 μM). The cells were assayed by Western blot using antibodies to NOXA, p53 and β-actin as described above."}, "SK-MeI-28 melanoma cells": {"system": "SK-MeI-28 melanoma cells", "experiment": "Dosing study versus chemotherapeutic agents, killing of SK-MeI-28 melanoma cells", "format": "cell-based, human", "conditions": "SK-MeI-28, mutated p53", "protocol": "An initial dosing study comparing z-Leu-Leu-Nle-CHO against three different chemotherapeutic agents (i.e., adriamycin, etoposide, and cisplatin) was performed to evaluate the relative effectiveness of z-Leu-Leu-Nle-CHO in killing melanoma cells. In agreement with a previous report by Soengas, M. S. et al., 2001, Nature 409.207-211, SK-MeI-28 cells, carrying a mutated p53, were relatively resistant to killing by adriamycin, as well as to killing by other chemotherapeutic agents. For SK-MeI-28 melanoma cells, the maximal apoptotic response for adriamycin, etoposide, cisplatin, and z-Leu-Leu-Nle-CHO was 12.0%, 2.6%, 4.0%, and 29.4%, respectively. For RJ002L melanoma cells, the maximal apoptotic response for adriamycin, etoposide, cisplatin, and z-Leu-Leu-Nle-CHO was 23.9%, 12.7%, 3.4%, and 45.7%, respectively."}, "NOXA [2]": {"system": "NOXA", "experiment": "Western blot of pro-survival and pro-apoptotic proteins in melanoma cells", "format": "cell-based, human", "conditions": "10 μM", "protocol": "To assess the effect of z-Leu-Leu-Nle-CHO on pro-apoptotic proteins, RJ002L pulmonary metastases melanoma cells were grown in RPMI supplemented with 10% FBS. Highly proliferating cells (i.e., cells that had reached approximately 30% confluency) were exposed to z-Leu-Leu-Nle-CHO by replenishing the culture media with media containing z-Leu-Leu-Nle-CHO (10 μM) (experimental group) or media without z-Leu-Leu-Nle-CHO (control group) and the cells were incubated for a specified period of time prior to harvesting the cells for further analysis.\nWestern blot analyses following z-Leu-Leu-Nle-CHO and control treatment of RJ002L melanoma cells were performed to determine the effect of z-Leu-Leu-Nle-CHO on pro-survival and pro-apoptotic proteins. Whole cell extracts were prepared and analyzed as described by Denning, M. F. et al., 1998, J Biol Chem 273: 29995-30002, 1998. The enriched mitochondria pellet and mitochondria-free cytosol of melanoma cells were prepared with the APO ALERT cell fraction kit (Clontech Laboratories, Inc. Palo Alto, Calif.) according to the manufacturer's instructions. For Western blot analysis, equal amounts of protein extracted from each sample (20-30 μg) were loaded into pre-cast 7% NuPAGE Tris-acetate gels or 4-12% NuPAGE Bis-tris gels (Invitrogen). Proteins were separated by SDS-PAGE and transferred to polyvinylidene difluoride membranes (Bio-Rad, Hercules, Calif.) using Invitrogen's buffering system. The indicated primary antibodies were incubated for indicated period of time, washed, and visualized by incubation with horseradish peroxidase-conjugated secondary antibodies and chemiluminescent reagents (Roche Diagnostics Corporation, Indianapolis, Ind.). Antibodies used were as follows: From Santa Cruz Biotechnology: Bcl-2 (SC-7382), BCl-xL (SC-634), Mcl-1 (SC-819), survivin (SC-10811), Bax (SC-493), Bak (SC-832), Bim (SC-11425), PUMA (SC-19187), p53 (SC-126), and GADD45 (SC-796); From Cell Signaling: Bid (#2002), and cleaved caspase 9 (9501); NOXA (OP180—Oncogene Research Products), Apaf-1 (559683-BD Bioscience), Smac/Diablo (IMG-248-Imgenex), cytochrome C (part of kit—Apo Alert™ cell fraction kit—Clontech Laboratories, Inc.—Palo Alto, Calif.), PARP (Pharmingen, San Diego, Calif.) and β-actin (Sigma Chemical Co., St. Louis, Mo.). Secondary antibodies anti-goat, anti-mouse, anti-rabbit and anti-rat (IgG-HRP) were purchased from Vector Laboratories (Burlingame, Calif.), Santa Cruz Biotechnology and Amersham Biosciences.\nTo determine if p53 status influences induction of NOXA, NOXA induction in z-Leu-Leu-Nle-CHO-treated melanoma cell lines (10 μM) containing p53 mutations (i.e. C8161, SK-MeI-28, MUM2B) were examined using Western blot analysis as described above and compared to that of Western blot results from z-Leu-Leu-Nle-CHO-treated melanoma cell lines (10 μM) having wild-type p53 (RJ002L, SK-MeI-100). […] In contrast, C8161, which carries a R196Stop mutation in only one allele, has p53 expression similar to that observed in wild-type cell lines. […] NOXA induction occurred earlier in SK-MeI-100 cells than in the other tested cell lines (FIG. 2C). Apaf-1 levels were not increased in response to z-Leu-Leu-Nle-CHO (data not shown)."}, "NOXA [3]": {"system": "NOXA", "experiment": "Western blot of pro-apoptotic proteins in normal melanocytes treated with z-Leu-Leu-Nle-CHO", "format": "cell-based, human", "conditions": "data not shown"}, "[4]": {"system": "cytochrome C and Smac/DLABLO", "experiment": "Mitochondrial integrity by Western blot in RJ002L melanoma cells", "format": "cell-based, human", "conditions": "10 μM", "protocol": "Western blot analyses following z-Leu-Leu-Nle-CHO and control treatment of RJ002L melanoma cells were performed to determine the effect of z-Leu-Leu-Nle-CHO on pro-survival and pro-apoptotic proteins. Whole cell extracts were prepared and analyzed as described by Denning, M. F. et al., 1998, J Biol Chem 273: 29995-30002, 1998. The enriched mitochondria pellet and mitochondria-free cytosol of melanoma cells were prepared with the APO ALERT cell fraction kit (Clontech Laboratories, Inc. Palo Alto, Calif.) according to the manufacturer's instructions. For Western blot analysis, equal amounts of protein extracted from each sample (20-30 μg) were loaded into pre-cast 7% NuPAGE Tris-acetate gels or 4-12% NuPAGE Bis-tris gels (Invitrogen). Proteins were separated by SDS-PAGE and transferred to polyvinylidene difluoride membranes (Bio-Rad, Hercules, Calif.) using Invitrogen's buffering system. The indicated primary antibodies were incubated for indicated period of time, washed, and visualized by incubation with horseradish peroxidase-conjugated secondary antibodies and chemiluminescent reagents (Roche Diagnostics Corporation, Indianapolis, Ind.). […]\nMitochondrial integrity before and after exposure to z-Leu-Leu-Nle-CHO was evaluated using Western blot analysis as described above."}, "[5]": {"system": "SAOS-2 osteosarcoma cells", "experiment": "z-Leu-Leu-Nle-CHO on NOXA and apoptosis in SAOS-2 osteosarcoma cells", "format": "cell-based", "conditions": "10 μM"}}, "note": "Entries after “also recorded” stand apart in the source; their conditions may differ. Square brackets hold non-standard residues; d marks the D form. Peptide text beside a SMILES is read from it. * marks the point of attachment. Nle = CCCC[C@H](N)C(=O)O; Cbz = O=C(OCc1ccccc1)*", "data": [{"smiles": "CC(C)C[C@H](NC(=O)[C@H](Cc1ccccc1)NC(=O)c1cnccn1)B(O)O", "note": "[bortezomib, N-(2-pyrazine)carbonyl-L-phenylalanine-L-leucine boronic acid]", "values": [{"measurement": "time course of NOXA induction", "setting": "NOXA [1]", "value": "induction of NOXA occurred beginning at 3-6 hrs with more prominent levels detected at 18-24 hrs"}]}, {"smiles": "CCCC[C@@H](C=O)NC(=O)[C@H](CC(C)C)NC(=O)[C@H](CC(C)C)NC(=O)OCc1ccccc1", "note": "[z-Leu-Leu-Nle-CHO, N-benzyloxycarbonyl-leucyl-leucyl-norleucinal] (Cbz-Leu-Leu-[Nle]-aldehyde)", "values": [{"measurement": "maximal apoptotic response", "setting": "SK-MeI-28 melanoma cells", "value": 29.4, "unit": "%"}, {"measurement": "induction of pro-apoptotic proteins", "setting": "NOXA [2]; RJ002L", "value": "induced expression of Bak, Bim, and NOXA"}, {"measurement": "time course of NOXA induction", "setting": "NOXA [2]; RJ002L", "value": "detectable as early as 1 hr and was massive by 6-18 hrs"}, {"measurement": "NOXA induction", "setting": "NOXA [2]; all tested melanoma cell lines, regardless of p53 mutation status", "value": "induced NOXA in all tested melanoma cell lines"}, {"measurement": "induction of pro-apoptotic proteins (Bak, Bim, NOXA)", "setting": "NOXA [3]", "value": "did not induce any of the pro-apoptotic proteins; also recorded: did not induce NOXA in normal melanocytes"}, {"measurement": "release of cytochrome C and Smac/DLABLO from mitochondria", "setting": "[4]", "value": "released into the cytoplasm of RJ002L melanoma cells as early as 1 hr"}, {"measurement": "NOXA expression", "setting": "[5]; SAOS-2, p53 null", "value": "induced expression of NOXA"}, {"measurement": "dead cells", "setting": "[5]; SAOS-2, after 24 hrs, data not shown", "value": "> 50", "unit": "%"}]}]}
